In patent publication US4740499A, “Method of enhancing the bioactivity of atrial peptides” (Monsanto Company, priority 1986, dated 1988):
Where a SMILES comes first, the peptide text is derived from it. Bridges are numbered along the chain shown (N, C = ends).

Key:
[1] = tested on: rabbit kidney brush border membranes (RBBM); assay: physchem; format: biochemical; conditions: for Effect of inhibitor on atrial peptide bioactivity during incubation with renal brush border membranes: nanomolar (low) concentrations of inhibitor
Description: (§1) The kelatorphan was prepared according to the method described for compound 13 by Fournie-Saluski et al., J. Med. Chem. 28, 1158-1169 (1985). The following procedure was performed at 4° C. Rabbit kidneys were obtained fresh and were perfused with buffer A (containing 5 mM Tris, pH 7.5, 0.25 M sucrose, 3 mM MgCl2 and 1 mM EDTA) to remove the blood. (EDTA=ethylenediaminetetraacetic acid.) The kidneys were minced, homogenized in 5 volumes of ice-cold buffer A with a Brinkmann Polytron homogenizer and filtered through two layers of cheesecloth. The filtrate was centrifuged at 5,000×g for 20 min, the pellet was discarded and the supernatant was centrifuged at 15,000×g for 20 min. The supernatant was retained and then centrifuged at 100,000×g for 90 min. The pellet was resuspended in 50 mM Tris, pH 7.5, and the suspension was centrifuged at 100,000×g for 90 min. The washed pellet was resuspended in 50 mM Tris, pH 7.5, to give a final protein concentration of 4 mg/ml using the protein assay of Bradford, Anal. Biochem. 72, 248-254 (1976). The membrane preparation was assayed for aminopeptidase and alkaline phosphatase activities which are the marker enzymes for the kidney brush border. See Inui et al., Biochim. Biophys. Acta 647, 150-154 (1981). The final membrane preparation was enriched 8-fold in alkaline phosphatase activity, and 11-fold in aminopeptidase activity, compared to the homogenate. Renal brush border membranes (10-20 μg) were preincubated for 15 min at 25° C. in a solution containing the inhibitor and 50 mM Tris, pH 7.5. […] Incubations were for 60 min at 25° C. and were terminated by removing the membranes by filtration using Gelman GA-6 filters. The filtrates were immediately frozen on dry ice and were stable for 1 week when stored at -80° C. Samples containing the peptide degradation products were resolved by C18 reversed phase high pressure liquid chromatography (HPLC). The frozen samples were thawed immediately before injection onto a Vydac C18 column (4.6 mm I.D.×25 cm; 5 micron/300 Å) equilibrated with water containing 0.05% trifluoracetic acid (TFA). Peptide fragments and starting material were separated on a linear gradient of 0-35% acetonitrile also containing 0.05% TFA. Both the gradient and the flow rate (1 ml/min) were maintained by a Waters HPLC system consisting of two Model 510 pumps connected to an Automated Gradient Controller. Column effluent was monitored at 220 nm by a Waters Model 481 spectrophotometer, and the amount of atrial peptide material and peptide fragments were measured via a Hewlett-Packard Model […] integrator. […] Therefore, in those cases where the N-terminal serine was removed, the total amount of biologically active material remaining at the end of the incubation was taken as the % starting material remaining plus % des […] -AP-I or des […] -AP-III (as appropriate), as calculated from the peak areas of the individual peptides on HPLC.

[2] = Plasma AP-III levels (radioimmunoassay) in rats, first test: constant AP-III infusion, varied thiorphan dose; format: in vivo, rat; conditions: male, Sprague-Dawley, rat, in vivo, iv
Description: (§2) Plasma levels of atriopeptin III (AP-III) were tested in rats in which the AP-III was infused intravenously both with and without contemporaneous administration of thiorphan.
(§3) Male Sprague-Dawley rats, 240-310 g, were used for all tests. The rats were housed in the test facilities for at least 6 days before they were used.
(§4) Cannulas were made of PE-10 (polyethylene) tubing inserted and glued into a piece of PE-50 tubing. Rats were anesthetized with pentobarbital (50 mg/kg i.p.) and had cannulas inserted into the left femoral vein and artery. Both were inserted four cm into the vessels and tied securely. They were then tunnelled under the skin and brought out between the rat's shoulder blades and then cut so that only 1-2 cm was externalized. Cannulas were glued in place using Superglue and filled with saline containing 100 units heparin/ml. Rats were allowed to wake up and then housed individually with food and water ad libitum.
(§5) Two days after surgery, the rats were weighed and put into restraining cages that allowed limited movement. […] Blood was collected from the femoral artery and replaced with saline containing 10 units heparin/ml. In most tests, 0.3 ml blood was taken, except that when basal AP-III levels were measured 0.4 ml blood was withdrawn. Blood was immediately centrifuged in a microcentrifuge for one minute and plasma was frozen in plastic tubes placed on dry ice. Samples were kept in a -80° C. freezer until they were analyzed.
(§6) Thiorphan was dissolved in a minimal amount of 0.1 N NaOH to produce the sodium salt. The solution was immediately neutralized using 0.5 N HCl and diluted to a final concentration with 0.9% saline.
After taking the second sample, thiorphan was given as a bolus injection into the femoral artery and the line was flushed with 0.2 ml saline. The doses of thiorphan were 1,3,10 and 30 mg/kg; one set of rats received only a saline bolus as a control. Blood was taken 10,20,30 and 60 minutes after the injection of thiorphan. AP-III was infused during the entire experiment for a total of 90 minutes.
(§7) Plasma AP-III levels were analyzed by radioimmunoassay using a second antibody to separate free and bound AP-III. The label was ^125 I-AP-III that was purified by HPLC after iodination. Conditions were set so that 35-40% of the total counts were precipitated. The incubation medium contained sodium phosphate, pH 7.4, 0.25% bovine serum albumin (BSA), 0.5% sodium azide and 3% PEG-8000 (polyethylene glycol). The primary antibody was from a guinea pig immunized against AP-III. The incubations were done overnight at 6° C. The next day, 2 ml of 0.125% BSA was added to each tube and then they were centrifuged for 45 min at 3000 rpm. They were decanted and the radioactivity was counted in a Micromedic gamma counter. The standard curve contained 10 to 600 pg AP-III/tube. Only the linear portion of the curve was used for quantification. Plasma samples were diluted so that the AP-III concentrations were in the range of the standard curve.

physchem = format: biochemical, rabbit; conditions: pH 7.5, Peak area as % Initial AP: AP
Description: as §1

[3] = Plasma AP-III levels (radioimmunoassay) in rats, second test: varied AP-III infusion rate, constant thiorphan dose; format: in vivo, rat; conditions: male, Sprague-Dawley, rat, in vivo, iv
Description: as §2, §3, §4, §5, §6
In the second test, the level of thiorphan was kept constant at 3 mg/kg and the rate of AP-III infusion was varied. AP-III was infused into the femoral vein for a total of 60 minutes at a rate of 150,450 and 900 ng/kg/min; another group of rats received only an infusion of dextrose/saline to determine if thiorphan affected the basal levels of AP-III. Blood was taken at 15 and 30 minutes after the start of the AP-III infusion to check for a steady state AP-III plasma concentration. After the 30 min sample, thiorphan (3 mg/kg) was injected arterially and additional blood samples were taken 15 and 30 min later (45 and 60 minutes after the start of the AP-III infusion).
as §7

[4] = (c) 40 μM AP-III, 20 μg RBBM, 100 nM inhibitor, 60 min, 25° C.
[5] = rabbit, kidney or brush border membranes

## C[C@H](NC(=O)[C@@H](CC(=O)NO)Cc1ccccc1)C(=O)O [(R,S) kelatorphan]
[1]; [4]
  Peak area as % Initial AP: AP: 16.5%
  Peak area as % Initial AP: AP + des Ser^1 -AP: 31.4%
  Peak area as % Initial AP: des Ser^1 -AP: 14.9%
[1]
  Effect of inhibitor on atrial peptide bioactivity during incubation with renal brush border membranes: inhibit the loss of atrial peptide bioactivity

## C[C@H](NC(=O)[C@H](CC(=O)NO)Cc1ccccc1)C(=O)O [(S,S) kelatorphan]
[1]; [4]
  Peak area as % Initial AP: AP: 17.2%
  Peak area as % Initial AP: AP + des Ser^1 -AP: 49.3%
  Peak area as % Initial AP: des Ser^1 -AP: 32.1%
[1]
  Effect of inhibitor on atrial peptide bioactivity during incubation with renal brush border membranes: inhibit the loss of atrial peptide bioactivity

## CC[C@H](C)[C@@H]1NC(=O)[C@H](CCCN=C(N)N)NC(=O)[C@H](CC(=O)O)NC(=O)[C@H]([C@@H](C)CC)NC(=O)[C@H](CCCN=C(N)N)NC(=O)CNC(=O)CNC(=O)[C@H](Cc2ccccc2)NC(=O)[C@@H](NC(=O)[C@H](CO)NC(=O)[C@@H](N)CO)CSSC[C@@H](C(=O)N[C@@H](CC(N)=O)C(=O)N[C@@H](CO)C(=O)N[C@@H](Cc2ccccc2)C(=O)N[C@@H](CCCN=C(N)N)C(=O)N[C@@H](Cc2ccc(O)cc2)C(=O)O)NC(=O)CNC(=O)[C@H](CC(C)C)NC(=O)CNC(=O)[C@H](CO)NC(=O)[C@H](CCC(N)=O)NC(=O)[C@H](C)NC(=O)CNC1=O [AP-III] (H-SSCFGGRIDRIGAQSGLGCNSFRY-OH; disulfide 3-19)
[2]; 833 ng/kg/min
  Plasma AP-III concentration, stable level during infusion: 9 to 11 ng/mL
  Plasma AP-III levels, constant level in control rats: 11 to 12 ng/mL
  level at 20 min: 9.6 ± 1.6 ng/mL
  level at 0.5 h: 10.8 ± 1.1 ng/mL
  level at 40 min: 11.2 ± 1.3 ng/mL
  level at 50 min: 11.3 ± 1.1 ng/mL
  level at 1 h: 11.7 ± 0.7 ng/mL
  level at 1.5 h: 10.6 ± 1.4 ng/mL
[2]; 1 mg/kg
  level at 20 min: 9.2 ± 2.4 ng/mL
  level at 0.5 h: 9.7 ± 1 ng/mL
[2]; 3 mg/kg
  level at 20 min: 10.1 ± 1.6 ng/mL
  level at 0.5 h: 11 ± 1.1 ng/mL
[2]; 10 mg/kg
  level at 20 min: 9.7 ± 2.4 ng/mL
  level at 0.5 h: 10.6 ± 2.9 ng/mL
[2]; 30 mg/kg
  level at 20 min: 9.2 ± 1.1 ng/mL
  level at 0.5 h: 8.8 ± 1 ng/mL
physchem; buffer or solvent
  remaining at 1 h, 40 μM: 100%
physchem; [5]
  remaining at 1 h, 40 μM: 3.3%
[1]; rabbit, kidney or brush border membranes, 1 h, 40 μM, pH 7.5
  Peak area as % Initial AP: AP: 2.1%
[3]; 150 ng/kg/min
  level at 0.25 h: 0.9 ± 0.2 ng/mL
  level at 0.5 h: 1 ± 0.6 ng/mL
[3]; 450 ng/kg/min
  level at 0.25 h: 4.2 ± 1 ng/mL
  level at 0.5 h: 4.5 ± 1.2 ng/mL
[3]; 900 ng/kg/min
  level at 0.25 h: 11.2 ± 3.5 ng/mL
  level at 0.5 h: 13.6 ± 1.8 ng/mL

## CC[C@H](C)[C@@H]1NC(=O)[C@H](CCCN=C(N)N)NC(=O)[C@H](CC(=O)O)NC(=O)[C@H]([C@@H](C)CC)NC(=O)[C@H](CCCN=C(N)N)NC(=O)CNC(=O)CNC(=O)[C@H](Cc2ccccc2)NC(=O)[C@@H](NC(=O)[C@H](CO)NC(=O)[C@@H](N)CO)CSSC[C@@H](C(=O)N[C@@H](CC(N)=O)C(=O)N[C@@H](CO)C(=O)O)NC(=O)CNC(=O)[C@H](CC(C)C)NC(=O)CNC(=O)[C@H](CO)NC(=O)[C@H](CCC(N)=O)NC(=O)[C@H](C)NC(=O)CNC1=O [AP-I] (H-SSCFGGRIDRIGAQSGLGCNS-OH; disulfide 3-19)
physchem; buffer or solvent
  remaining at 1 h, 40 μM: 100%
[1]
  Degradation of atrial peptide by proteolytic activity of renal brush border membranes: degraded

## CC[C@H](C)[C@@H]1NC(=O)[C@H](CCCNC(=N)N)NC(=O)[C@H](CC(=O)O)NC(=O)[C@H](CCSC)NC(=O)[C@H](CCCNC(=N)N)NC(=O)CNC(=O)CNC(=O)[C@H](Cc2ccccc2)NC(=O)[C@@H](NC(=O)[C@H](CO)NC(=O)[C@H](CO)NC(=O)[C@H](CCCNC(=N)N)NC(=O)[C@H](CCCNC(=N)N)NC(=O)[C@H](CC(C)C)NC(=O)[C@@H](N)CO)CSSC[C@@H](C(=O)N[C@@H](CC(N)=O)C(=O)N[C@@H](CO)C(=O)N[C@@H](Cc2ccccc2)C(=O)N[C@@H](CCCNC(=N)N)C(=O)N[C@@H](Cc2ccc(O)cc2)C(=O)O)NC(=O)CNC(=O)[C@H](CC(C)C)NC(=O)CNC(=O)[C@H](CO)NC(=O)[C@H](CCC(N)=O)NC(=O)[C@H](C)NC(=O)CNC1=O [SLRR(Met^8)AP-III]
physchem; buffer or solvent
  remaining at 1 h, 40 μM: 100%
physchem; [5]
  remaining at 1 h, 40 μM: 0%
[1]
  Degradation of atrial peptide by proteolytic activity of renal brush border membranes: degraded

## C[C@H](NC(=O)[C@@H](CC(=O)NO)Cc1ccccc1)C(=O)O [kelatorphan, [(R)-3-(N-hydroxy)carboxamido-2-benzylpropanoyl]-L-alanine]
[1]
  Effect of inhibitor on atrial peptide bioactivity during incubation with renal brush border membranes: substantially prolonged or enhanced
